Experimental data from patent US6642251B1, “Geometrically restricted 2-indolinone derivatives as modulators of protein kinase activity” (Sugen, Inc., priority 1998, dated 2003).
Where two headings read alike, the source gives them in different places.

Columns and labels:
[1] = molecular target: T1, src protein kinase (Gallus gallus, UniProt P00523); test: Biochemical src assay (bio SRC); settings: for IC50: 50% inhibition of target PTK activity; as to bio SRC, outcome of primary assay: key: DNH = did not hit in primary assay
T1 construct: made in house; host or cells: Schizosaccharomyces pombe strain SP200
Description: This assay is used to determine src protein kinase activity measuring phosphorylation of a biotinylated peptide as the readout.
a. Yeast transformed with src (Sugen, Inc., Redwood City, Calif.).
1. Coat ELISA plate with 0.5 μg/well anti-src mab in 100 μl of pH 9.6 sodium carbonate buffer; hold at 4° C. overnight.
2. Wash wells once with PBS.
3. Block plate with 0.15 ml 5% milk in PBS for 30 min. at room temperature.
4. Wash plate 5× with PBS.
5. Add 10 μg/well of src transformed yeast lysates diluted in Lysis Buffer (0.1 ml total volume per well). (Amount of lysate may vary between batches.) Shake plate for 20 minutes at room temperature.
1. 4G10 plate: coat 0.5 μg/well 4G10 in 100 μl PBS overnight at 4° C. and block with 150 μl of 5% milk in PBS for 30 minutes at room temperature.
1. Remove unbound proteins.from plates and wash plates 5× with PBS.
2. Add 0.08 ml Kinase Reaction Mixture per well (containing 10 μl of 10×-Kinase Buffer and 10 μM (final concentration) biotin-EEEYEEYEEEYEEEYEEEY per well diluted in water.
3. Add 10 μl of compound diluted in water containing 10% DMSO and pre-incubate for 15 minutes at room temperature.
4. Start kinase reaction by adding 10 μl/well of 0.05 mM ATP in water (5 μM ATP final).
5. Shake ELISA plate for 15 min. at room temperature.
6. Stop kinase reaction by adding 10 μl of 0.5 M EDTA per well.
7. Transfer 90 μl supernatant to a blocked 4G10 coated ELISA plate.
8. Incubate for 30 min. while shaking at room temperature.
9. Wash plate 5× with TBST.
10. Incubate with Vectastain ELITE ABC reagent (100 μl/well) for 30 min. at room temperature.
11. Wash the wells 5× with TBST.
12. Develop with Turbo TMB.

[2] = molecular target: T2, IGF-1 receptor (Homo sapiens, UniProt P08069); test: Cellular IGF-1 receptor assay (cell IGF); format: cell-based; settings: for IC50: 50% inhibition of target PTK activity; as to cell IGF, outcome of primary assay: key: DNH = did not hit in primary assay
T2 construct: expressed in transfected cells; host or cells: NIH3T3/IGF-1R
Description: The following protocol may be used to measure phosphotyrosine level on IGF-1 receptor, which indicates IGF-1 receptor tyrosine kinase activity.
a. The cell line used in this assay is 3T3/IGF-1R, a cell line genetically engineered to overexpresses IGF-1 receptor.
2. […] Incubate for 1 day then replace medium to serum-free medium (90/μl) and incubate in 5% CO2 and 37° C. overnight.
2. Remove the coating solution, and replace with 100 μl Blocking Buffer, and shake for 30 minutes. Remove the blocking buffer and wash the plate just before adding lysate.
1. The drugs are tested under serum-free condition.
2. Dilute drug stock (in 100% DMSO) 1:10 with DMEM in 96-well poly-propylene plate, and transfer 10 μl/well of this solution to the cells to achieve final drug dilution 1:100, and final DMSO concentration of 1.0%. Incubate the cells in 5% CO2 at 37° C. for 2 hours.
3. Prepare fresh cell lysis buffer (HNTG*)
4. After drug incubation for two hours, transfer 10 μl/well of 200 nM IGF-1 Ligand in PBS to the cells (Final Conc. is 20 nM), and incubate at 5% CO2 at 37° C. for 10 minutes.
5. Remove media and add 100 μl/well HNTG* and shake for 10 minutes. Look at cells under microscope to see if they are adequately lysed.
6. Use a 12-channel pipette to scrape the cells from the plate, and homogenize the lysate by repeated aspiration and dispensing. Transfer all the lysate to the antibody coated ELISA plate, and shake for 1 hour.
7. Remove the lysate, wash the plate, transfer anti-pTyr (1:3,000 with TBST) 100 μl/well, and shake for 30 minutes.
8. Remove anti-pTyr, wash the plate, transfer TAGO (1:3,000 with TBST) 100 μl/well, and shake for 30 minutes.
9. Remove detection antibody, wash the plate, and transfer fresh ABTS/H2O2 (1.2 μl H2O2 to 10 ml ABTS) 100 μl/well to the plate to start color development.
10. Measure OD at 410 nm with a reference wavelength of 630 nm in Dynatec MR5000.

[3] = molecular target: Pyk2 (Homo sapiens, UniProt Q14289); test: Pyk2 assay; format: biochemical; as to Pyk2, outcome of primary assay: key: DNH = did not hit in primary assay
[4] = molecular target: EGFR (Homo sapiens, UniProt P00533); test: Biochemical EGFR assay (bio EGFR), ELISA; design: A431 cell lysate (Screening Lab, SUGEN, Inc.); endogenous in cells; host or cells: A431; settings: 50% inhibition of target PTK activity; read-out: bio EGFR (Page 5) IC50
Description: This assay measures the in vitro kinase activity of EGFR using ELISA.
6. A431 cell lysate (Screening Lab, SUGEN, Inc.)
1. Coat Corning 96 well ELISA plates with 0.5 μg […] in
100 μl PBS per well, store overnight at 4° C.
2. Remove unbound SUMO1 from wells by inverting plate to remove liquid. Wash 1× with dH2O. Pat the plate on a paper towel to remove excess liquid.
3. Add 150 μl of Blocking Buffer to each well. Incubate for 30 min. at room temperature with shaking.
4. Wash plate 3× with deionized water, then once with TBST. Pat plate on a paper towel to remove excess liquid and bubbles.
5. Dilute lysate in PBS (7 μg lysate/100 μl PBS).
6. Add 100 μl of diluted lysate to each well. Shake at room temperature for 60 min.
7. Wash plates as described in 4, above.
8. Add 120 μl TBS to ELISA plate containing captured EGFR.
9. Dilute test compound 1:10 in TBS in 96-well polypropylene plates (ie. 10 μl compound+90 μl TBS).
10. Add 13.5 μl diluted test compound to ELISA plate.
11. Incubate for 30 minutes while shaking at room temperature.
13. After 5 minutes, stop reaction by adding 16.5 μl of 200 mM EDTA (pH 8.0) to each well, shaking continuously. After the EDTA has been added, shake for 1 min.
14. Wash 4× with deionized water, twice with TBST.
15. Add 100 μl anti-phosphotyrosine (1:3000 dilution.in TBST) per well. Incubate 30-45 min. at room temperature, with shaking.
16. Wash as described in 4, above.
17. Add 100 μl Biosource Goat anti-rabbit IgG peroxidase conjugate (1:2000 dilution in TBST) to each well. Incubate 30 min. at room temperature, with shaking.
18. Wash as described in 4, above.
19. Add 100 μl of ABTS/H2O2 solution to each well.
20. Incubate 5 to 10 minutes with shaking. Remove any bubbles.
21. If necessary stop reaction with the addition of 100 μl 0.2 M HCl per well.
22. Read assay on Dynatech MR7000 ELISA reader. Test Filter: 410 nM Reference Filter: 630 nM

[5] = 50% inhibition of target PTK activity, read-out: Pyk2 IC50

Sequence of EGFR (P00533 25-1210): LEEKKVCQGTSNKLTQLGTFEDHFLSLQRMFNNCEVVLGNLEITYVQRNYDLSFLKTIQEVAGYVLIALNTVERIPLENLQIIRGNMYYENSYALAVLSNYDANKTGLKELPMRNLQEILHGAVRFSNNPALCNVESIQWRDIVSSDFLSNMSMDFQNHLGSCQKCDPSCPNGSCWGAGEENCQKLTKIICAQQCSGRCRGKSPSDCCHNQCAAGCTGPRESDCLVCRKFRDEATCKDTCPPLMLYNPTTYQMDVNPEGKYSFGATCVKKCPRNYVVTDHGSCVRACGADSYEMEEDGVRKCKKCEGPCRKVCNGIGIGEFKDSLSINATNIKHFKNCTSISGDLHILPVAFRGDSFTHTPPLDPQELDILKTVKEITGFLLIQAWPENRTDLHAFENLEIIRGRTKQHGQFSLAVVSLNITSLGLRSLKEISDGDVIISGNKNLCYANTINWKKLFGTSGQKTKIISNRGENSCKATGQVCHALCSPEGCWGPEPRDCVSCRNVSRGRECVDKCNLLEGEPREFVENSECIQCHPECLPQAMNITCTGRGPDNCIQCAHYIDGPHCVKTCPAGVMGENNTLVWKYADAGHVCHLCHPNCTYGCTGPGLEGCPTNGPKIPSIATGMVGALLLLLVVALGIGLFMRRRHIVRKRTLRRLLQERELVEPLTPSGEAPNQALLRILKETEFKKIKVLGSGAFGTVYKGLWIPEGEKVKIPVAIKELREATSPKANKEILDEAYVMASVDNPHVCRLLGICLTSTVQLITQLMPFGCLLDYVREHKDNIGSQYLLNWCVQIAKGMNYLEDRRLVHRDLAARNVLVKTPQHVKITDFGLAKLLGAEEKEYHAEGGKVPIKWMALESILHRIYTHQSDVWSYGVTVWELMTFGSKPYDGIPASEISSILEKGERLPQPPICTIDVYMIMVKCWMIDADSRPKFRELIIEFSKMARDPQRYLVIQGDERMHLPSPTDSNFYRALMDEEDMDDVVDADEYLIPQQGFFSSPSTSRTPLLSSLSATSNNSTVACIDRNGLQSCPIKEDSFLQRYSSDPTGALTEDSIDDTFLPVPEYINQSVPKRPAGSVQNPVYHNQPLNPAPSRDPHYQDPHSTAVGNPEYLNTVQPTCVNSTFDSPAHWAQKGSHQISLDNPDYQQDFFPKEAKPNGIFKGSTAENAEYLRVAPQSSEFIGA
T2 sequence (P08069 31-1367): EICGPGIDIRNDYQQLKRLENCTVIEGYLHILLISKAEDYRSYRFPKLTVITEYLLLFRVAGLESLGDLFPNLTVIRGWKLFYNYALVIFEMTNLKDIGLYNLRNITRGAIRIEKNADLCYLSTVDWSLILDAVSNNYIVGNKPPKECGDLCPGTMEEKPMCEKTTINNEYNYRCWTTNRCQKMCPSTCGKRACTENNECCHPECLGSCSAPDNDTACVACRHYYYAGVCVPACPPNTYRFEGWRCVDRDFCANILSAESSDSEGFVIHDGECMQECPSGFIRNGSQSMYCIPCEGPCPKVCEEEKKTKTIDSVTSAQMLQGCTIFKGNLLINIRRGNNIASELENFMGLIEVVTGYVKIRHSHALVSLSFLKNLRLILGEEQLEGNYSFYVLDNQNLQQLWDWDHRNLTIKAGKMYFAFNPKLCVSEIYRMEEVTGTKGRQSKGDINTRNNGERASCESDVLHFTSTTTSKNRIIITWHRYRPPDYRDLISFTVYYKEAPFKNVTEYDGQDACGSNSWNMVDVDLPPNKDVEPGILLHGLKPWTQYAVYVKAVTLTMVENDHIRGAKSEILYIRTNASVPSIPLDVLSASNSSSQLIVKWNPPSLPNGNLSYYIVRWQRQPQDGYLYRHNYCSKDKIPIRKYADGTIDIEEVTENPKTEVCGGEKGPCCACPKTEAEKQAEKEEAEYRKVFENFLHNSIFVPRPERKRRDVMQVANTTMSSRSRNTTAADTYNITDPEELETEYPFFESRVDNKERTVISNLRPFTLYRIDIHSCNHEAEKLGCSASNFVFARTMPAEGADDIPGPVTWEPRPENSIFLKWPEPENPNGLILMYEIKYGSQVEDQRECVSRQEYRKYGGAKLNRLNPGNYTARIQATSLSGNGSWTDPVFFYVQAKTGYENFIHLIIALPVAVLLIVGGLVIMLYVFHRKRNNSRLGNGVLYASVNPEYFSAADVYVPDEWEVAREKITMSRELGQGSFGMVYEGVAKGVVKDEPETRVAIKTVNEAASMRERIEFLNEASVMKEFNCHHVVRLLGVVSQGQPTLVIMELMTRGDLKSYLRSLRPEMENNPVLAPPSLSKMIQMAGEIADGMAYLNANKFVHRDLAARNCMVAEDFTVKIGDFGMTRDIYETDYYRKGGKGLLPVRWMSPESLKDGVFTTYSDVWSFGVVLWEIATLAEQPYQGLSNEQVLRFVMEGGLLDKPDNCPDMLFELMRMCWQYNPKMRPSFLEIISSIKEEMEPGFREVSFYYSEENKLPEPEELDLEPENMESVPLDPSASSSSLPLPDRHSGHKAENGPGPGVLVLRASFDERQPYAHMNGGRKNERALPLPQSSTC
Sequence of Pyk2 (Q14289 whole entry, species assumed): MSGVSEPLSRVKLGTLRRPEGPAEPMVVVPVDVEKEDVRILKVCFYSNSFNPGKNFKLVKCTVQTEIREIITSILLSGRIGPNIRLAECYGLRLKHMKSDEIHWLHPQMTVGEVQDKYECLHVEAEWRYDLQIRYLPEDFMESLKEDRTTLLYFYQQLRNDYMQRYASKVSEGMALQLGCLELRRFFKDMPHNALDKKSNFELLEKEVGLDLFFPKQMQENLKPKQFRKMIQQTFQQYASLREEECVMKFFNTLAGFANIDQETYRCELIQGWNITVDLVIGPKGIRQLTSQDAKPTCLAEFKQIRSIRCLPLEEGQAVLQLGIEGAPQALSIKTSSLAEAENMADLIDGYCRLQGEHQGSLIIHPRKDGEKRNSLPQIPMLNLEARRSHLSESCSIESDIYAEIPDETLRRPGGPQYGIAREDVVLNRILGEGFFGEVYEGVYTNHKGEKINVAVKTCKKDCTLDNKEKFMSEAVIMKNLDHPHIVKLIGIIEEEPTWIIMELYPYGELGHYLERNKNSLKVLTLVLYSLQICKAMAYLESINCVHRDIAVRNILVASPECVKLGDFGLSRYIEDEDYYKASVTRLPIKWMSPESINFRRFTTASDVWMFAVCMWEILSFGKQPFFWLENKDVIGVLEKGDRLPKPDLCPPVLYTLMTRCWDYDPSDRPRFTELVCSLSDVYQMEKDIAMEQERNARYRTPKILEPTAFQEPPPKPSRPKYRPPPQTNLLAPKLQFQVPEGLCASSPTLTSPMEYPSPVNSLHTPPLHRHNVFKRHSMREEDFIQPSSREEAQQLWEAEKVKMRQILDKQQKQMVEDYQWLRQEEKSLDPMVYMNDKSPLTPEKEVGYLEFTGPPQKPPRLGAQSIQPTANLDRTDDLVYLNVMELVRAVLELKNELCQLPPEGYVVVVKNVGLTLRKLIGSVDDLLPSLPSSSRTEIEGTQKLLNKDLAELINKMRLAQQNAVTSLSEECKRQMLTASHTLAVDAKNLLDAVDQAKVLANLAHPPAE

SMILES	bio SRC, outcome of primary assay [1]	cell IGF, outcome of primary assay [2]	IC50 [3, 5]	IC50 [4]	Pyk2, outcome of primary assay [3]	Pyk2 % Inh ([3]; concentration not given)	IC50 [1]	IC50 [2]	IC50 [3]
O=C1Nc2ccccc2/C1=C1\CCc2cc(N3CCCCC3)ccc21 [Compound 8, 3-(5-Piperidin-1-yl-indan-1-ylidene)-1,3-dihydroindol-2-one]	–	DNH	–	> 100 µM	DNH	–	–	–	–
O=C1Nc2ccccc2/C1=C1\CCc2cc(Br)ccc21 [Compound 9, 3-(5-Bromoindan-1-ylidene)-1,3-dihydroindol-2-one]	–	DNH	–	> 100 µM	–	–	–	–	–
O=C1Nc2ccccc2/C1=C1\CCc2ccccc21 [Compound 10, 3-Indan-1-ylidene-1,3-dihydroindol-2-one]	–	–	–	> 100 µM	–	–	> 100 µM	> 100 µM	–
COc1ccc2c(c1)C(CC(=O)O)C/C2=C1/C(=O)Nc2ccccc21 (stereo not drawn) [Compound 11, [6-Methoxy-3-(2-oxo-1,2-dihydroindol-3-ylidene)-indan-1-yl]acetic Acid]	–	–	9.3 µM	> 100 µM	–	–	–	> 100 µM	–
COc1cc2c(cc1OC)/C(=C1\C(=O)Nc3ccccc31)CC2 [Compound 12, 3-(5,6-Dimethoxyindan-1-ylidene)-1,3-dihydroindol-2-one]	–	–	–	> 25 µM	DNH	–	> 25 µM	> 25 µM	–
COc1ccc2c(c1)C(CC(=O)[O-])CC2=C1C(=O)Nc2ccccc21.[Na+] (stereo not drawn) [Compound 13, [6-Methoxy-3-(2-oxo-1,2-dihydroindol-3-ylidene)-indan-1-yl]acetic Acid Sodium Salt]	–	–	–	> 100 µM	–	–	–	> 100 µM	4.5 µM

Second part, the compound after the results:

bio SRC, outcome of primary assay [1]	cell IGF, outcome of primary assay [2]	IC50 [3, 5]	IC50 [4]	Pyk2, outcome of primary assay [3]	Pyk2 % Inh ([3]; concentration not given)	IC50 [1]	IC50 [2]	IC50 [3]	SMILES
DNH	DNH	> 100 µM	> 100 µM	–	–	–	–	–	CC1C/C(=C2/C(=O)Nc3ccccc32)c2ccccc21 (stereo not drawn) [Compound 1, 3-(3-methylindan-1-ylidene)-1,3-dihydroindol-2-one]
DNH	DNH	–	> 100 µM	DNH	–	–	–	–	Cc1cccc2c1CC/C2=C1/C(=O)Nc2ccccc21 [Compound 2, 3-(4-Methylindan-1-ylidene)-1,3-dihydroindol-2-one]
DNH	DNH	–	> 100 µM	DNH	56%	–	–	–	COc1ccc2c(c1)CC/C2=C1/C(=O)Nc2ccccc21 [Compound 3, 3-(5-Methoxyindan-1-ylidene)-1,3-dihydroindol-2-one]
–	DNH	79.3 µM	> 100 µM	–	–	> 100 µM	–	–	CN(C)c1ccc2c(c1)CC/C2=C1/C(=O)Nc2ccccc21 [Compound 5, 3-(5-Dimethylaminoindan-1-ylidene)-1,3-dihydroindol-2-one]
–	DNH	–	> 100 µM	DNH	–	> 100 µM	–	–	O=C1Nc2ccccc2/C1=C1\CCc2cc(Cl)ccc21 [Compound 7, 3-(5-Chloroindan-1-ylidene)-1,3-dihydroindol-2-one]
